Experiments:
[1] = system: SW-620; assay: NCI-60 screen at 10 μM: SW-620; type: cell-based, human; conditions: Colon Cancer SW-620; 10 μM single dose; 48 hrs
Description: (§1) NL-101 and CY-102 was sent to U.S. National Cancer Institute (NCI) for NCI 60-cell line screening using a single compound dose (10 μM).
(§2) The human tumor cell lines of the cancer screening panel were grown in RPMI 1640 medium containing 5% fetal bovine serum (5% FBS) and 2 mM L-glutamine. For a typical screening experiment, cells were inoculated into 96-well microtiter plates in 100 μL, at plating densities ranging from 5,000 to 40,000 cells/well depending on the doubling time of individual cell lines. After cell inoculation, the microtiter plates were incubated at 37° C., 5% CO2, 95% air, and 100% relative humidity for 24 h prior to addition of experimental compounds. […]
(§3) Following drug addition, the plates were incubated for an additional 48 hrs at 37° C., 5% CO2, 95% air, and 100% relative humidity. […] Bound stain was subsequently solubilized with 10 mM trizma base, and the absorbance was read on an automated plate reader at a wavelength of 515 nm. […]
(§4) Using the seven absorbance measurements [time zero, (Tz), control growth, (C), and test growth in the presence of drug at the 10 μM concentration levels (Ti)], percentage growth was calculated at each of the drug concentrations levels. Percentage growth inhibition was calculated as: [(Ti−Tz)/(C−Tz)]×100 for which Ti>/=Tz or [(Ti−Tz)/Tz]×100 for which Ti<Tz.

[2] = system: IGROV1; assay: NCI-60 screen at 10 μM: IGROV1; type: cell-based, human; conditions: Ovarian Cancer IGROV1; 10 μM single dose; 48 hrs
Description: as §1, §2, §3, §4

[3] = system: NCI-H23; assay: NCI-60 screen at 10 μM: NCI-H23; type: cell-based, human; conditions: NSCLC NCI-H23; 10 μM single dose; 48 hrs
Description: as §1, §2, §3, §4

[4] = system: A549/ATCC; assay: NCI-60 screen at 10 μM: A549/ATCC; type: cell-based, human; conditions: NSCLC A549/ATCC; 10 μM single dose; 48 hrs
Description: as §1, §2, §3, §4

[5] = system: K-562; assay: NCI-60 screen at 10 μM: K-562; type: cell-based, human; conditions: Leukemia K-562; 10 μM single dose; 48 hrs
Description: as §1, §2, §3, §4

[6] = system: OVCAR-3; assay: NCI-60 screen at 10 μM: OVCAR-3; type: cell-based, human; conditions: Ovarian Cancer OVCAR-3; 10 μM single dose; 48 hrs
Description: as §1, §2, §3, §4

[7] = system: MOLT-4; assay: NCI-60 screen at 10 μM: MOLT-4; type: cell-based, human; conditions: Leukemia MOLT-4; 10 μM single dose; 48 hrs
Description: as §1, §2, §3, §4

[8] = system: U251; assay: NCI-60 screen at 10 μM: U251; type: cell-based, human; conditions: CNS Cancer (Glioma) U251; 10 μM single dose; 48 hrs
Description: as §1, §2, §3, §4

[9] = system: RXF 393; assay: NCI-60 screen at 10 μM: RXF 393; type: cell-based, human; conditions: Renal Cancer RXF 393; 10 μM single dose; 48 hrs
Description: as §1, §2, §3, §4

[10] = system: SNB-75; assay: NCI-60 screen at 10 μM: SNB-75; type: cell-based, human; conditions: CNS Cancer (Glioma) SNB-75; 10 μM single dose; 48 hrs
Description: as §1, §2, §3, §4

[11] = system: HOP-92; assay: NCI-60 screen at 10 μM: HOP-92; type: cell-based, human; conditions: NSCLC HOP-92; 10 μM single dose; 48 hrs
Description: as §1, §2, §3, §4

[12] = system: A498; assay: NCI-60 screen at 10 μM: A498; type: cell-based, human; conditions: Renal Cancer A498; 10 μM single dose; 48 hrs
Description: as §1, §2, §3, §4

[13] = system: KM12; assay: NCI-60 screen at 10 μM: KM12; type: cell-based, human; conditions: Colon Cancer KM12; 10 μM single dose; 48 hrs
Description: as §1, §2, §3, §4

[14] = system: 60 cancer cell lines; assay: NCI-60 DTP human tumor cell line screen at 10 μM, whole panel; type: cell-based; conditions: for Growth %, Median: 10 μM single dose, median over cell lines; for mean growth percent in the 60 cancer cell lines: single dose of about 10 μM
Description: as §1
The human tumor cell lines of the cancer screening panel were grown in RPMI 1640 medium containing 5% fetal bovine serum (5% FBS) and 2 mM L-glutamine. For a typical screening experiment, cells were inoculated into 96-well microtiter plates in 100 μL, at plating densities ranging from 5,000 to 40,000 cells/well depending on the doubling time of individual cell lines. After cell inoculation, the microtiter plates were incubated at 37° C., 5% CO2, 95% air, and 100% relative humidity for 24 h prior to addition of experimental compounds. After 24 hr, two plates of each cell line were fixed in situ with TCA, to represent a measurement of the cell population for each cell line at the time of drug addition (Tz). Experimental drugs were solubilized in dimethyl sulfoxide at 400-fold the desired final maximum test concentration and stored frozen prior to use. At the time of drug addition, an aliquot of frozen concentrate was thawed and diluted to twice the desired final maximum test concentration with complete medium containing 50 μg/ml gentamicin. Aliquots of 100 μL of these different drug dilutions were added to the appropriate microtiter wells already containing 100 μL of medium, resulting in the required final drug concentrations.
Following drug addition, the plates were incubated for an additional 48 hrs at 37° C., 5% CO2, 95% air, and 100% relative humidity. For adherent cells, the assay was terminated by the addition of cold TCA. Cells were then fixed in situ by the gentle addition of 50 μL of cold 50% (w/v) TCA (final concentration, 10% TCA) and incubated for 60 minutes at 4° C. The supernatant was discarded, and the plates were washed five times with tap water and air dried. Sulforhodamine B (SRB) solution (100 μL) at 0.4% (w/v) in 1% acetic acid was added to each well, and plates were incubated for 10 minutes at room temperature. After staining, unbound dye was removed by washing five times with 1% acetic acid and the plates were air dried. Bound stain was subsequently solubilized with 10 mM trizma base, and the absorbance was read on an automated plate reader at a wavelength of 515 nm. […]
as §4

[15] = system: MDA-MB-435; assay: NCI-60 screen at 10 μM: MDA-MB-435; type: cell-based, human; conditions: Melanoma MDA-MB-435; 10 μM single dose; 48 hrs
Description: as §1, §2, §3, §4

[16] = system: OVCAR-5; assay: NCI-60 screen at 10 μM: OVCAR-5; type: cell-based, human; conditions: Ovarian Cancer OVCAR-5; 10 μM single dose; 48 hrs
Description: as §1, §2, §3, §4

[17] = system: NCI-H322M; assay: NCI-60 screen at 10 μM: NCI-H322M; type: cell-based, human; conditions: NSCLC NCI-H322M; 10 μM single dose; 48 hrs
Description: as §1, §2, §3, §4

[18] = system: DU-145; assay: NCI-60 screen at 10 μM: DU-145; type: cell-based, human; conditions: Prostate Cancer DU-145; 10 μM single dose; 48 hrs
Description: as §1, §2, §3, §4

[19] = system: UACC-257; assay: NCI-60 screen at 10 μM: UACC-257; type: cell-based, human; conditions: Melanoma UACC-257; 10 μM single dose; 48 hrs
Description: as §1, §2, §3, §4

[20] = system: COLO 205; assay: NCI-60 screen at 10 μM: COLO 205; type: cell-based, human; conditions: Colon Cancer COLO 205; 10 μM single dose; 48 hrs
Description: as §1, §2, §3, §4

[21] = system: UO-31; assay: NCI-60 screen at 10 μM: UO-31; type: cell-based, human; conditions: Renal Cancer UO-31; 10 μM single dose; 48 hrs
Description: as §1, §2, §3, §4

[22] = system: 786-0; assay: NCI-60 screen at 10 μM: 786-0; type: cell-based, human; conditions: Renal Cancer 786-0; 10 μM single dose; 48 hrs
Description: as §1, §2, §3, §4

[23] = system: UACC-62; assay: NCI-60 screen at 10 μM: UACC-62; type: cell-based, human; conditions: Melanoma UACC-62; 10 μM single dose; 48 hrs
Description: as §1, §2, §3, §4

[24] = system: HL-60(TB); type: cell-based, human

Row | Structure (SMILES) | Growth % [1] | Growth % [2] | Growth % [3] | Growth % [4] | Growth % [5] | Growth % [6] | Growth % [7] | Growth % [8] | Growth % [9] | Growth % [10] | Growth % [11] | Growth % [12] | Growth % [13] | Growth %, Median [14] | mean growth percent in the 60 cancer cell lines [14] | Growth % [15] | Growth % [16] | Growth % [17] | Growth % [18] | Growth % [19] | further results
1 | Cn1c(CCCCCCC(=O)NO)nc2cc(N(CCCl)CCCl)ccc21 [NL-101] | 30.40% | 55.99% | 30.14% | 43.54% | 31.63% | 50.40% | 18.01% | 35.03% | 5.95% | 19.79% | 22.07% | 49.70% | 65.79% | 36.35% | 36% | 49.07% | 66.28% | 75.30% | 18.47% | 33.75% | Growth % [20]: 54.36%; Growth % [21]: 63.69%; Growth % [22]: 19.82%; Growth % [23]: 12.99%; Growth % [24]: 18.98%
2 | Cn1c(CCNCc2ccc(/C=C/C(=O)NO)cc2)nc2cc(N(CCCl)CCCl)ccc21 [CY-102] | 2.33% | −14.43% | −6.76% | −32.69% | 1.07% | −55.02% | 2.17% | −39.66% | −35.55% | −48.45% | −35.89% | −81.56% | −78.14% | −28.5% | −28% | −73.24% | −3.75% | −15.30% | −16.06% | −36.39% | Growth % [20]: −81.34%; Growth % [21]: −9.19%; Growth % [22]: −30.40%; Growth % [23]: −69.24%; Growth % [24]: −10.34%

Source: patent US10118901B2 (priority 2013, dated 2018)
